Test results taken from the supplement of paper PMC8671470.

Experiments:
Conditions in all cases: 72 h
KCL-22 [1] = tested on: KCL-22
How it was run: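 For the IC50, dose–response curves were fitted with a log-logistic model. The data came from fifteen myeloid leukaemia cell lines grown in RPMI 1640 at densities in the linear growth range and incubated in 384-well plates for 72 h at 37 °C under 5% CO2. Doses were five tenfold steps from 1 to 10,000 nM in duplicate, and luminescent ATP viability was normalised to vehicle and to a positive control at 10 µM before four-parameter fitting.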

HL-60 [2] = experiment: cell viability (% survival relative to DMSO control); higher = less cytotoxic
How it was run: (§1)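 A rescreen of the full library used HL-60 cells in RPMI 1640 with 10% FBS on 384-well plates, run in duplicate at five tenfold concentrations (1–10,000 nM). Each screen included DMSO or 100 nM of one of three metabolic inhibitors and ran 72 h at 37 °C, 5% CO2. CellTiter-Glo viability was scaled between DMSO and 10 μM proteasome-inhibitor wells. Any area under the curve comes from four-parameter log-logistic fits with drc and PharmacoGx.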

BV-173 = experiment: cell viability (% survival relative to DMSO control, bortezomib = 0%); higher = less cytotoxic
How it was run: (§2)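 In 384-well plates pre-printed with compounds at 1, 10, 100, 1000 or 10000 nM, duplicate wells received cells from 10 AML and 5 CML lines at densities within the linear growth range. The plates stayed at 37 °C with 5% CO2 for 72 h before CellTiter-Glo luminescence was recorded. Each entry is averaged percent survival. Scaling placed vehicle at 100% and a 10 µM positive control at 0%.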

HEL = experiment: as above
How it was run: as §2

HL-60 [3] = experiment: as above
How it was run: as §2

K-562 = experiment: as above
How it was run: as §2

KCL-22 [4] = experiment: as above
How it was run: as §2

KG-1 = experiment: as above
How it was run: as §2

KU-812 = experiment: as above
How it was run: as §2

LAMA-84 = experiment: as above
How it was run: as §2

ML-2 = experiment: as above
How it was run: as §2

MOLM-13 = experiment: as above
How it was run: as §2

MV4-11 = experiment: as above
How it was run: as §2

Mono-Mac-6 = experiment: as above
How it was run: as §2

NOMO-1 = experiment: as above
How it was run: as §2

SHI-1 = experiment: as above
How it was run: as §2

THP-1 = experiment: as above
How it was run: as §2

HL-60 [5] = experiment: area under dose-response curve (viability, 1 nM-10 uM) (fraction (0-1)); higher = more sensitive
How it was run: as §1

C[C@H](NC(=O)c1sccc1OCc1ccc(Cl)cc1)c1ccccc1
Conditions | IC50 (cell viability) [µM]
KCL-22 [1] | > 10

cell viability [%], HL-60 [2]
Conditions | 0.001 µM | 0.01 µM | 0.1 µM | 1 µM | 10 µM
co-treatment: AZD3965 100 nM | 70.8 | 87.5 | 99.14 | 103 | 92.2
co-treatment: DMSO vehicle | 99.5 | 98.9 | 96.69 | 104 | 97.6
co-treatment: GSK2194069 100 nM | 83.9 | 89.91 | 98.7 | 74.5 | 92.5
co-treatment: pictilisib 100 nM | 90.8 | 95.7 | 94.9 | 95.2 | 108

Conditions | area under dose-response curve, co-treatment: AZD3965 100 nM | area under dose-response curve, co-treatment: DMSO vehicle | area under dose-response curve, co-treatment: GSK2194069 100 nM | area under dose-response curve, co-treatment: pictilisib 100 nM | cell viability, 1 nM [%] | cell viability, 10 nM [%] | cell viability, 100 nM [%] | cell viability, 1000 nM [%] | cell viability, 10000 nM [%]
BV-173 | – | – | – | – | 93.5 | 99.7 | 89.2 | 90.1 | 50.4
HEL | – | – | – | – | 98.3 | 101 | 97.6 | 97.5 | 91.4
HL-60 [3] | – | – | – | – | 90.6 | 84.1 | 106 | 35.7 | 56
HL-60 [5] | < 0.0301 | < 0.0301 | < 0.0301 | < 0.0301 | – | – | – | – | –
K-562 | – | – | – | – | 96.4 | 93.3 | 87.6 | 97.2 | 62
KCL-22 [4] | – | – | – | – | 111 | 106 | 97.8 | 84 | 65.6
KG-1 | – | – | – | – | 94 | 103 | 92.1 | 91.9 | 61.4
KU-812 | – | – | – | – | 84.6 | 96.1 | 94.8 | 95.8 | 59.8
LAMA-84 | – | – | – | – | 94.2 | 100 | 94 | 98.9 | 65.4
ML-2 | – | – | – | – | 104 | 108 | 98.8 | 106 | 72.4
MOLM-13 | – | – | – | – | 93.5 | 95.7 | 96.8 | 109 | 102
MV4-11 | – | – | – | – | 89.3 | 102 | 83 | 96.1 | 59.9
Mono-Mac-6 | – | – | – | – | 88.8 | 102 | 102 | 98.3 | 88.8
NOMO-1 | – | – | – | – | 96.6 | 108 | 99.3 | 102 | 101
SHI-1 | – | – | – | – | 82.5 | 98.7 | 97.9 | 95.4 | 75.7
THP-1 | – | – | – | – | 101 | 103 | 99 | 103 | 92.1

CC1(C)[C@@H](O[C@H]2O[C@H](C(=O)O)[C@@H](O)[C@H](O)[C@H]2O[C@@H]2O[C@H](C(=O)O)[C@@H](O)[C@H](O)[C@H]2O)CC[C@]2(C)[C@H]3C(=O)C=C4[C@@H]5C[C@@](C)(C(=O)O)CC[C@]5(C)CC[C@@]4(C)[C@]3(C)CC[C@@H]12 [Glycyrrhizin]
Conditions | IC50 (cell viability) [µM]
KCL-22 [1] | > 10

cell viability [%], HL-60 [2]
Conditions | 0.001 µM | 0.01 µM | 0.1 µM | 1 µM | 10 µM
co-treatment: AZD3965 100 nM | 103 | 102 | 102 | 102.6 | 105
co-treatment: DMSO vehicle | 102 | 103 | 95.5 | 98.7 | 101
co-treatment: GSK2194069 100 nM | 102 | 100 | 105 | 110.4 | 104
co-treatment: pictilisib 100 nM | 94 | 99.5 | 99.1 | 97.7 | 103

Conditions | area under dose-response curve, co-treatment: AZD3965 100 nM | area under dose-response curve, co-treatment: DMSO vehicle | area under dose-response curve, co-treatment: GSK2194069 100 nM | area under dose-response curve, co-treatment: pictilisib 100 nM | cell viability, 1 nM [%] | cell viability, 10 nM [%] | cell viability, 100 nM [%] | cell viability, 1000 nM [%] | cell viability, 10000 nM [%]
BV-173 | – | – | – | – | 88.9 | 109 | 117 | 95.4 | 83.4
HEL | – | – | – | – | 99.8 | 108 | 107 | 109 | 84.8
HL-60 [3] | – | – | – | – | 74.5 | 101 | 113 | 103 | 98.7
HL-60 [5] | < 0.0301 | < 0.0301 | < 0.0301 | < 0.0301 | – | – | – | – | –
K-562 | – | – | – | – | 88.7 | 87.5 | 102 | 91.6 | 83.4
KCL-22 [4] | – | – | – | – | 89.9 | 95.3 | 105 | 99.3 | 97.2
KG-1 | – | – | – | – | 90 | 108 | 114 | 101 | 106
KU-812 | – | – | – | – | 87.4 | 92 | 107 | 99.6 | 84.3
LAMA-84 | – | – | – | – | 94.9 | 98.8 | 98.7 | 92.7 | 102
ML-2 | – | – | – | – | 101 | 110 | 104 | 114 | 99.5
MOLM-13 | – | – | – | – | 70.1 | 91.4 | 133 | 79.3 | 92.3
MV4-11 | – | – | – | – | 89 | 108 | 108 | 85.3 | 102
Mono-Mac-6 | – | – | – | – | 94.1 | 103 | 104 | 94.8 | 89
NOMO-1 | – | – | – | – | 97.5 | 107 | 103 | 100 | 93.4
SHI-1 | – | – | – | – | 95.5 | 100 | 114 | 105 | 97.2
THP-1 | – | – | – | – | 92.1 | 103 | 95.8 | 98.4 | 96.2

COc1ccc(C(=O)Nc2c(Cl)cncc2Cl)cc1OC1CCCC1 [Piclamilast]
Conditions | IC50 (cell viability) [µM]
KCL-22 [1] | > 10

cell viability [%], HL-60 [2]
Conditions | 0.001 µM | 0.01 µM | 0.1 µM | 1 µM | 10 µM
co-treatment: AZD3965 100 nM | 104 | 104 | 95.5 | 105 | 107
co-treatment: DMSO vehicle | 101 | 100.9 | 98.4 | 97.54 | 104.6
co-treatment: GSK2194069 100 nM | 101.3 | 100 | 98.8 | 97.1 | 109.3
co-treatment: pictilisib 100 nM | 107 | 107 | 96.4 | 95.35 | 106

Conditions | area under dose-response curve, co-treatment: AZD3965 100 nM | area under dose-response curve, co-treatment: DMSO vehicle | area under dose-response curve, co-treatment: GSK2194069 100 nM | area under dose-response curve, co-treatment: pictilisib 100 nM | cell viability, 1 nM [%] | cell viability, 10 nM [%] | cell viability, 100 nM [%] | cell viability, 1000 nM [%] | cell viability, 10000 nM [%]
BV-173 | – | – | – | – | 86.3 | 107 | 92.1 | 114 | 99.7
HEL | – | – | – | – | 95.3 | 108 | 102 | 119 | 109
HL-60 [3] | – | – | – | – | 87.1 | 103 | 65.2 | 87.5 | 115
HL-60 [5] | < 0.0301 | < 0.0301 | < 0.0301 | < 0.0301 | – | – | – | – | –
K-562 | – | – | – | – | 90.5 | 111 | 90.7 | 108 | 83.1
KCL-22 [4] | – | – | – | – | 95.3 | 101 | 92.7 | 102 | 108
KG-1 | – | – | – | – | 97.7 | 102 | 86 | 99.2 | 104
KU-812 | – | – | – | – | 91.4 | 94.6 | 90 | 105 | 99.1
LAMA-84 | – | – | – | – | 87.5 | 114 | 91.2 | 110 | 103
ML-2 | – | – | – | – | 84.4 | 104 | 102 | 88.2 | 110
MOLM-13 | – | – | – | – | 89.2 | 110 | 67.4 | 103 | 88.1
MV4-11 | – | – | – | – | 92.5 | 110 | 92.8 | 118 | 114
Mono-Mac-6 | – | – | – | – | 93.6 | 107 | 80.6 | 100 | 87.7
NOMO-1 | – | – | – | – | 87.1 | 104 | 94.6 | 97.1 | 110
SHI-1 | – | – | – | – | 94.1 | 105 | 106 | 99.3 | 113
THP-1 | – | – | – | – | 94 | 104 | 97.6 | 102 | 109
